Columns and labels:
[1] = Influence of the amount of NaCl on the distribution between oil phase and water phase (Example 5); format: physicochemical
[2] = Second oil phase obtained by adding NaCl to the water phase (Example 4); format: physicochemical; settings: after separating oil phases I and II
Description: Cross linked polystyrene was used as adsorbent material. The volume flux for loading the adsorbent was 300 ml/min.
The adsorbent was heated to 150 °C, the temperature of the applied water steam was 160 °C.
The water steam flux was 10 g/min and was applied for 100 min.
The oil and water phases were separated.
A second oil phase was separated and was collected.

| Molecule | Distribution in [%] between oil phase and water phase after condensation: Oil phase ([1]; NaCl 0%) [%] | Distribution in [%] between oil phase and water phase after condensation: Water phase ([1]; NaCl 0%) [%] | Distribution in [%] between oil phase and water phase after condensation: Oil phase ([1]; NaCl 27.8 %) [%] | Distribution in [%] between oil phase and water phase after condensation: Water phase ([1]; NaCl 27.8 %) [%] | Distribution in [%] between oil phase and water phase after condensation: Oil phase ([1]; NaCl 41.67%) [%] | Distribution in [%] between oil phase and water phase after condensation: Water phase ([1]; NaCl 41.67%) [%] | Distribution in [%] between oil phase and water phase after condensation: Oil phase ([1]; NaCl 55.56 %) [%] | Distribution in [%] between oil phase and water phase after condensation: Water phase ([1]; NaCl 55.56 %) [%] | Distribution in [%] between oil phase and water phase after condensation: Oil phase ([1]; NaCl 69.44 %) [%] | Distribution in [%] between oil phase and water phase after condensation: Water phase ([1]; NaCl 69.44 %) [%] | Distribution in [%] between oil phase and water phase after condensation: Oil phase ([1]; NaCl 83.33 %) [%] | Distribution in [%] between oil phase and water phase after condensation: Water phase ([1]; NaCl 83.33 %) [%] | Loss in the water phase [2] |
| --- | --- | --- | --- | --- | --- | --- | --- | --- | --- | --- | --- | --- | --- |
| 2-methyl propanol | 17.1 | 82.9 | 29.7 | 70.3 | 41 | 59 | 42.8 | 57.2 | 45.9 | 54.1 | 50.2 | 49.8 | 49,8% |
| CCC(C)CO (stereo not drawn) [2-methyl butanol] | 30.8 | 69.2 | 69 | 31 | 64.4 | 35.6 | 70.6 | 29.4 | 82.5 | 17.5 | 82.7 | 17.3 | 17,3% |
| CCC(C)COC(C)=O (stereo not drawn) [2-methyl butyl acetate] | 79.3 | 20.7 | 97.1 | 2.9 | 98.6 | 1.4 | 99.2 | 0.8 | 99.7 | 0.3 | 99.8 | 0.2 | 0,2% |
| CC(=O)OCC(C)C [2-methylpropyl acetate] | 69.3 | 30.7 | 92.1 | 7.9 | 96.2 | 3.8 | 97.5 | 2.5 | 98.6 | 1.4 | 99 | 1 | 1,0% |
| CCCC(CC=O)OCC (stereo not drawn) [3-ethoxy-hexanal] | 48.4 | 51.6 | 78.9 | 21.1 | 89 | 11 | 94.6 | 5.4 | 97.4 | 2.6 | 98.5 | 1.5 | 1,5% |
| CC(C)CCO [3-methyl butanol] | 28.4 | 71.6 | 39 | 61 | 63.1 | 36.9 | 69.7 | 30.3 | 68.9 | 31.1 | 82.1 | 17.9 | 17,9% |
